In US20200022963A1, “PHARMACEUTICAL COMPOSITION COMPRISING BETAHISTINE” (Otolanum AG, priority 2017, published 2020):
Where two headings read alike, the source gives them in different places.

Test: Pharmacokinetic profile after single oral, intranasal and intravenous betahistine in beagle dogs, Example 5
Format: in vivo
Settings: dog; for concentration at 0 h / concentration at 5 min / concentration at 0.167 h / concentration at 0.333 h / concentration at 0.5 h / concentration at 1 h / concentration at 2 h / concentration at 3 h / concentration at 6 h / concentration at 24 h: Betahistine Plasma Concentration
Protocol: In this study, the pharmacokinetic profile of betahistine was evaluated after a single dose administration of betahistine in male and female beagle dogs (age 5-7 months; weight of 5-11 kg, within a range of 3 kg for each sex) for three routes of administration: oral, intranasal, and intravenous.
On Day 1 of the study, betahistine (BH) was delivered orally at a dose of 12 mg/kg, 24 mg/kg, or 48 mg/kg. Each treatment group comprised 8 animals (4 males and 4 females). For pharmacokinetic assessment, plasma samples were collected prior to dosing, and then at 5, 10, 20 and 30 min, 1, 2, 3, 6, 24 hours after dosing.
On Day 8 of the study, the animals that received oral BH at a dose of 12 mg/kg were administered the test betahistine composition intranasally at a dose of 40 mg betahistine dihydrochloride; the animals that received oral BH at a dose of 24 mg/kg were administered the test betahistine composition intranasally at a dose of 80 mg betahistine dihydrochloride; and the animals that received oral BH at a dose of 48 mg/kg were administered the test betahistine composition intranasally at a dose of 120 mg betahistine dihydrochloride. The test betahistine composition was delivered intranasally in a single dose via an Aptar nasal spray pump device at a total dose level of 40, 80 and 120 mg of betahistine dihydrochloride. Plasma samples were collected prior to dosing, and then at 5, 10, 20 and 30 min, 1, 2, 3, 6, 24 hours after dosing.
On Day 15 of the study, the animals that received oral BH at a dose of 12 mg/kg and the test betahistine composition intranasally at a dose of 40 mg betahistine dihydrochloride were administered a bolus intravenous injection of betahistine at a dose of 0.44 mg/kg. Plasma samples were collected prior to dosing, and then at 5, 10, 20 and 30 min, 1, 2, 3, 6, 24 hours after dosing.
Betahistine 13CD3 dihydrochloride and 2-pyridylacetic acid-D4 hydrochloride were used as respective internal standards. The calibration range for betahistine was 0.05-250 ng/mL and for 2-PAA 2.00-3000 ng/mL using a plasma sample volume of 0.50 mL.
For determination of betahistine, the method involved liquid-liquid extraction, for 2-PAA, the method involved protein precipitation. Plasma samples were prepared for betahistine by extraction under basic conditions with an organic solvent, then the organic phase was dried, reconstituted and transferred for LC/MS-MS analysis. […] Sample analysis was performed using reversed phase chromatography.

[1] = both sexes, beagle, in vivo, iv, 0.44 mg/kg
[2] = both sexes, beagle, in vivo, po, 12 mg/kg
[3] = both sexes, beagle, in vivo, po, 24 mg/kg
[4] = both sexes, beagle, in vivo, po, 48 mg/kg
[5] = female, beagle, in vivo, inhaled or intranasal, 6 mg/kg
[6] = female, beagle, in vivo, inhaled or intranasal, 13 mg/kg
[7] = female, beagle, in vivo, inhaled or intranasal, 17.7 mg/kg
[8] = female, beagle, in vivo, iv, 0.44 mg/kg
[9] = female, beagle, in vivo, po, 12 mg/kg
[10] = female, beagle, in vivo, po, 24 mg/kg

## CNCCc1ccccn1 [betahistine]
beagle, in vivo, oral BH 48 mg/kg, male, Day 1, read-out: Cmax
  Cmax: 102 ± 30.2 ng/mL
[1]
  concentration at 0 h: 0.0825 ng/mL
  concentration at 5 min: 50.9 ng/mL
  concentration at 0.167 h: 22 ng/mL
  concentration at 0.333 h: 7.03 ng/mL
  concentration at 0.5 h: 4.82 ng/mL
  concentration at 1 h: 0.308 ng/mL
  concentration at 2 h: 0.633 ng/mL
  concentration at 3 h: 0.0878 ng/mL
  concentration at 6 h: 0.849 ng/mL
  concentration at 24 h: 0.202 ng/mL
[2]
  concentration at 0 h: 0 ng/mL
  concentration at 5 min: 1.97 ng/mL
  concentration at 0.167 h: 4.6 ng/mL
  concentration at 0.333 h: 7.96 ng/mL
  concentration at 0.5 h: 13.4 ng/mL
  concentration at 1 h: 9.86 ng/mL
  concentration at 2 h: 0.36 ng/mL
  concentration at 3 h: 0.0181 ng/mL
  concentration at 6 h: 0.00797 ng/mL
  concentration at 24 h: 0.0105 ng/mL
[3]
  concentration at 0 h: 0 ng/mL
  concentration at 5 min: 5 ng/mL
  concentration at 0.167 h: 5.15 ng/mL
  concentration at 0.333 h: 15.5 ng/mL
  concentration at 0.5 h: 14.9 ng/mL
  concentration at 1 h: 31.9 ng/mL
  concentration at 2 h: 2.83 ng/mL
  concentration at 3 h: 1.16 ng/mL
  concentration at 6 h: 0.21 ng/mL
  concentration at 24 h: 0 ng/mL
[4]
  concentration at 0 h: 0 ng/mL
  concentration at 5 min: 12.1 ng/mL
  concentration at 0.167 h: 22.5 ng/mL
  concentration at 0.333 h: 12.9 ng/mL
  concentration at 0.5 h: 26.5 ng/mL
  concentration at 1 h: 56.5 ng/mL
  concentration at 2 h: 21.5 ng/mL
  concentration at 3 h: 6.57 ng/mL
  concentration at 6 h: 0.439 ng/mL
  concentration at 24 h: 0 ng/mL
Both sexes, beagle, in vivo, IV bolus BH 0.44 mg/kg, sex-combined, Day 15, read-out: AUC(0-t)
  AUC(0-t): 23 ng·h/mL
Oral 24 mg/kg vs IV bolus 0.44 mg/kg, sex-combined
  Absolute Bioavailability (% F), AUC(0-t)/D: 3.01%
[5]
  AUC(0-t)/D: 30.2 ± 9.31 hr*ng/mL/(mg/kg)
  Cmax: 770 ng/mL
  Cmax/D: 128 ± 42.1 ng/mL/(mg/kg)
  Intranasal AUC/dose: 30.2 (h · ng/mL)/(mg/kg)
  Tmax: 4.8 min
female, beagle, in vivo, inhaled or intranasal, 6 mg/kg, AUC(0-6)
  AUC(0-t): 180 ± 57.3 ng·h/mL
female, beagle, in vivo, inhaled or intranasal, 6 mg/kg, AUC(0-t)
  AUC(0-t): 181 ± 55.8 ng·h/mL
[6]
  AUC(0-inf): 480 ± 336 ng·h/mL
  AUC(0-t)/D: 33.8 ± 21.8 hr*ng/mL/(mg/kg)
  Cmax: 1790 ng/mL
  Cmax/D: 138 ± 102 ng/mL/(mg/kg)
  Intranasal AUC/dose: 33.8 (h · ng/mL)/(mg/kg)
  Tmax: 8.4 min
female, beagle, in vivo, inhaled or intranasal, 13 mg/kg, AUC(0-6)
  AUC(0-t): 432 ± 281 ng·h/mL
female, beagle, in vivo, inhaled or intranasal, 13 mg/kg, AUC(0-t)
  AUC(0-t): 440 ± 283 ng·h/mL
[7]
  AUC(0-inf): 302 ng·h/mL
  AUC(0-t)/D: 16.4 ± 0.479 hr*ng/mL/(mg/kg)
  Cmax: 1330 ng/mL
  Cmax/D: 75.1 ± 17.0 ng/mL/(mg/kg)
  Intranasal AUC/dose: 16.4 (h · ng/mL)/(mg/kg)
  Tmax: 4.8 min
female, beagle, in vivo, inhaled or intranasal, 17.7 mg/kg, AUC(0-6)
  AUC(0-t): 277 ± 7.99 ng·h/mL
female, beagle, in vivo, inhaled or intranasal, 17.7 mg/kg, AUC(0-t)
  AUC(0-t): 290 ± 8.47 ng·h/mL
[8]
  AUC(0-inf): 14.3 ng·h/mL
  AUC(0-t)/D: 60.3 ± 40.0 hr*ng/mL/(mg/kg)
  Cmax: 43.7 ng/mL
  Cmax/D: 99.3 ng/mL/(mg/kg)
  Tmax: 5.4 min
  Vd: 10.6 L/kg
  clearance: 513 mL/min/kg
  half-life: 14.3 min
  concentration at 0 h: 0.0551 ng/mL
  concentration at 5 min: 43.7 ng/mL
  concentration at 0.167 h: 14.8 ng/mL
  concentration at 0.333 h: 6 ng/mL
  concentration at 0.5 h: 4.06 ng/mL
  concentration at 1 h: 0.268 ng/mL
  concentration at 2 h: 0.274 ng/mL
  concentration at 3 h: 0.095 ng/mL
  concentration at 6 h: 0.648 ng/mL
  concentration at 24 h: 0.405 ng/mL
female, beagle, in vivo, iv, 0.44 mg/kg, AUC(0-6)
  AUC(0-t): 16.3 ng·h/mL
female, beagle, in vivo, iv, 0.44 mg/kg, AUC(0-t)
  AUC(0-t): 26.5 ng·h/mL
[9]
  AUC(0-6)/D: 1.33 ± 0.483 hr*ng/mL/(mg/kg)
  Cmax: 14.7 ± 4.56 ng/mL
  Cmax/D: 1.22 ± 0.380 ng/mL/(mg/kg)
  Oral AUC/dose: 1.33 (h · ng/mL)/(mg/kg)
  Tmax: 60 min
  concentration at 0 h: 0 ng/mL
  concentration at 5 min: 2.59 ng/mL
  concentration at 0.167 h: 6.46 ng/mL
  concentration at 0.333 h: 10.1 ng/mL
  concentration at 0.5 h: 7.8 ng/mL
  concentration at 1 h: 14.1 ng/mL
  concentration at 2 h: 0.263 ng/mL
  concentration at 3 h: 0 ng/mL
  concentration at 6 h: 0 ng/mL
  concentration at 24 h: 0 ng/mL
female, beagle, in vivo, po, 12 mg/kg, AUC(0-t)
  AUC(0-t): 15.9 ± 5.8 ng·h/mL
[10]
  AUC(0-6)/D: 1.71 ± 0.748 hr*ng/mL/(mg/kg)
  AUC(0-inf): 27.7 ng·h/mL
  Cmax: 38 ± 26.1 ng/mL
  Cmax/D: 1.58 ± 1.09 ng/mL/(mg/kg)
  Oral AUC/dose: 1.71 (h · ng/mL)/(mg/kg)
  Tmax: 60 min
  half-life: 84.6 min
  concentration at 0 h: 0 ng/mL
  concentration at 5 min: 5.32 ng/mL
  concentration at 0.167 h: 5.24 ng/mL
  concentration at 0.333 h: 7.13 ng/mL
  concentration at 0.5 h: 12 ng/mL
  concentration at 1 h: 36.8 ng/mL
  concentration at 2 h: 3.58 ng/mL
  concentration at 3 h: 1.71 ng/mL
female, beagle, in vivo, po, 24 mg/kg, AUC(0-6)
  AUC(0-t): 26.2 ng·h/mL
female, beagle, in vivo, po, 24 mg/kg, AUC(0-t)
  AUC(0-t): 41 ± 17.9 ng·h/mL
